Reference: patent publication US9315531B2, “Titanocene-gold derivatives comprising thiolato ligands” (Research Foundation of the City University of New York, priority 2014, dated 2016)

Assays:
[1] = tested on: RPTC; test: Cell viability assay (XTT), RPTC; format: cell-based; details: 72 h incubation; human renal proximal tubular cells
Excerpt: (§1) Cell Culture: Human renal cell carcinoma lines A498, Caki-1 and UO31, as well as the human prostate carcinoma cell lines DU145 and PC3 were newly obtained for these studies from the American Type Culture Collection (ATCC) (Manassas, Va., USA) and cultured in Roswell Park Memorial Institute (RPMI-1640) (Mediatech Inc., Manassas, Va.) media containing 10% fetal bovine serum (FBS, Life Technologies, Grand Island, N.Y.), 1% Minimum Essential Media (MEM) nonessential amino acids (NEAA, Mediatech) and 1% penicillin-streptomycin (PenStrep, Mediatech). HEK-293T cells were newly purchased from ATCC (Manassas, Va., USA) and maintained in Dulbecco's modified Eagle's medium (DMEM) (Mediatech) supplemented with 10% FBS, 1% NEAA and 1% PenStrep. Normal human renal epithelial cells (RPTC) were purchased from Lifeline Cell Technology (Lifeline Cell Technology, Frederick, Md., USA) and maintained in Lifeline's Renal Life Medium from Lifeline Cell Technology supplemented with 2.4 mM L-glutamine, 5 μg/mL rh insulin, 1.0 nM epinephrine, 10 nM triiodothyronine, 0.1 μg/mL hydrocortisone hemisuccinate, 10 ng/mL rhEGF, 0.50% FBS, 5 μg/mL transferrin PS. All cells were cultured at 37° C. and 5% CO2 in a humidified incubator.
Cell Viability Assay: Cells were seeded at a concentration of 5000 cells/90 μl per well of either RPMI or DMEM without phenol red and without antibiotics, supplemented with 10% FBS and 2 mM L-glutamine into tissue culture grade 96-well flat bottom microplates (BioLite Microwell Plate, Fisher Scientific, Waltham, Mass., USA) and grown for 24 h at 37° C. in a humidified incubator. Afterwards, the intermediate dilutions of the compounds were added to the wells (10 μL) to obtain a final concentration ranging from 0.1 to 200 μM, and the cells were incubated for 24 h or 72 h. […] The optical absorbance of each well in a 96-well plate was quantified using BioTek ELx808 absorbance microplate reader (BioTek Winooski, Vt.) set at 450 nm wavelength. The percentage of surviving cells was calculated from the ratio of absorbance of treated to untreated cells.

[2] = tested on: HEK-293T; test: Cell viability assay (XTT), HEK-293T; format: cell-based; details: 72 h incubation; non-tumorigenic human embryonic kidney cell line
Procedure: HEK-293T cells were newly purchased from ATCC (Manassas, Va., USA) and maintained in Dulbecco's modified Eagle's medium (DMEM) (Mediatech) supplemented with 10% FBS, 1% NEAA and 1% PenStrep. […] All cells were cultured at 37° C. and 5% CO2 in a humidified incubator.

[3] = Solubility in DMSO/aqueous mixtures; format: physicochemical; details: at micromolar concentrations
Excerpt: (§2) Both compound 2 and compound 3 were less acidic than titanocene dichloride and were soluble in DMSO/water, DMSO/PBS and DMSO/media (1:99) mixtures at micromolar concentrations. These compounds were unusually stable methyl-containing titanocene moieties that were stable as solids at room temperature, while exposed to air in CDCl3 solution for at least five days.

[4] = tested on: plasmid pBR322 DNA; test: Electrophoresis mobility shift assay; format: binding; details: metal/DNAbp ratios 0.25-2.0, 37° C., 20 h
Procedure: Agarose gel electrophoresis assays were performed whereby decreased electrophoretic mobility of both forms were taken as evidence of metal-DNA binding.
Mobility Shift Assay: 10 μL aliquots of pBR322 plasmid DNA (20 μg/mL) in buffer (5 mM Tris/HCl, 50 mM NaClO4, pH=7.39) were incubated with different concentrations of the compounds (2, 3, 4, 5), and titanocene dichloride) (in the range 0.25 and 4.0 metal complex:DNA bp) at 37° C. for 20 h in the dark. Samples of free DNA and cisplatin-DNA were prepared as controls. After the incubation period, the samples were loaded onto the 1% agarose gel. The samples were separated by electrophoresis for 1.5 h at 80 V in Tris-acetate/EDTA buffer (TAE). Afterwards, the gel was stained for 30 min with a solution of GelRed nucleic acid stain.

[5] = tested on: Caki-1; test: Cell viability assay (XTT), Caki-1; format: cell-based, human; details: 72 h incubation
Excerpt: as §1
The optical absorbance of each well in a 96-well plate was quantified using BioTek ELx808 absorbance microplate reader (BioTek Winooski, Vt.) set at 450 nm wavelength. The percentage of surviving cells was calculated from the ratio of absorbance of treated to untreated cells.

[6] = Stability in solution (DMSO-d6, CDCl3, DMSO/PBS); format: physicochemical
Excerpt: as §2

[7] = tested on: TrRx in human ovarian A2780 cancer cells; details: 10 μM; cited from earlier work
[8] = tested on: MAPKAPK3; test: Protein kinase expression in Caki-1 whole cell lysates (Western blot), MAPKAPK3; format: cell-based, human; details: Caki-1, by 12 hours post-treatment
Procedure: The Caki-1 cells were then lysed and a Western blot analysis was performed with anti-MAPKAPK-3 antibody. Blots were probed with anti-β-Actin antibody as a control for protein loading.
Cell lysis and immunoblotting: Caki-1 cells were seeded into 10-cm dishes at a density of 2.2×10^6 and incubated for 24 hours. […] After microcentrifuging for 5 minutes at 4° C., pellets were treated with ice-cold lysis buffer with cell extraction buffer (BioSource, Camarillo, Calif.) containing 0.1% protease inhibitors and 1% phosphatase inhibitors cocktail (Fisher Scientific, Pittsburgh, Pa.) for 10 minutes, then sonicated for 10 seconds three times, and placed on ice. The lysed cells were centrifuged at 10,000×g at 4° C. for 10 minutes to remove the pellets representing the insoluble cell fraction.
The protein concentration was determined with BCA protein dye reagent (Pierce, Fisher Scientific Pittsburgh, Pa.). […]

[9] = target: T1, isolated TrRx (Homo sapiens, UniProt Q16881); details: isolated enzyme; read-out: concentration inhibiting 50% of the enzymatic activity of isolated TrRx; cited from earlier work
T1 sequence (Q16881 151-649 limits assumed): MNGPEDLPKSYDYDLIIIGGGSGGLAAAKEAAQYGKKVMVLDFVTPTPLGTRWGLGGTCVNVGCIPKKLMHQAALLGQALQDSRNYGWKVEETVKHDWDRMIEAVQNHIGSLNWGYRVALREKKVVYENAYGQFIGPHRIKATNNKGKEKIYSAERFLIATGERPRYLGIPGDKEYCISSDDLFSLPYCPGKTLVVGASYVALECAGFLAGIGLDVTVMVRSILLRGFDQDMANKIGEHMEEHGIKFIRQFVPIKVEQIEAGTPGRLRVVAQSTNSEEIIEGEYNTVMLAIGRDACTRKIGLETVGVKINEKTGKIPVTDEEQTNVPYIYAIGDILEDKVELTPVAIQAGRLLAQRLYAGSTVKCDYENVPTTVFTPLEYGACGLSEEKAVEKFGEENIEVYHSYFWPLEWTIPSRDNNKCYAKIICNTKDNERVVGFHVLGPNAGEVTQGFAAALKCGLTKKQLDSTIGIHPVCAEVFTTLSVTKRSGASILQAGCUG

[10] = tested on: thioredoxin reductase
Procedure: After 5, 12 or 24 hours of treatment incubation cells were washed three times in PBS, and lysed by douncing using scrapers and sheer force though syringe with a 34 gauge needle in assay buffer (Abeam Thioredoxin Reductase Assay kit, ab83463) added to 1 mM protease inhibitor cocktail (Abeam, ab65621). The lysates were centrifuged at 10,000×g for 15 minutes at 4° C. to isolate insoluble material. The total protein concentrations of soluble lysates were measured using the BCA Protein Assay (Life Technologies). The soluble lysates were incubated for 20 minutes in assay buffer with a proprietary thioredoxin reductase specific inhibitor before adding a specific substrate, DTNB (5, 5′-dithiobis(2-nitrobenzoic) acid), and measuring activity at 1 minute intervals for 30 minutes using the BioTek fluorescence microplate reader (BioTek U.S., Winooski, Vt.) set at =412 nm. Lysates were tested in duplicate. TrxR activity was calculated based on the linear amount of TNB produced per minute per mg of total protein and corrected for background activity from enzymes other than TrxR in the lysates.

[11] = tested on: TrRx in human breast MCF-7 cancer cells; details: 4 μM; cited from earlier work

Row | Molecule | IC50 [1] | IC50 [2] | effect on electrophoretic mobility of plasmid DNA forms [4] | IC50 [5] | further results
1 | [(η-C5H5)2TiMe(μ-mba)Au(MPPF)] [Compound 3] | 3.76 ± 0.21 µM | 3.09 ± 0.003 µM | did not affect the mobility | 4.11 ± 0.64 µM | solubility in DMSO/water, DMSO/PBS and DMSO/media (1:99) mixtures [3]: soluble; half-life in DMSO-d6 ([6]; DMSO-d6): thirty-two; half-life fold larger than corresponding compound 6 / compound 7 ([6]; DMSO-d6, same solvent): sixty-four; UV-vis spectra over time ([6]; micromolar concentration in 1:99 DMSO/PBS, 23 h, physiological pH): did not change over time
2 | CC(=O)OC[C@H]1O[C@@H]([S-])[C@H](OC(C)=O)[C@@H](OC(C)=O)[C@@H]1OC(C)=O.CCP(CC)CC.[Au+] [Auranofin] |  |  |  | 3.08 ± 0.13 µM | inhibition of total TrRx activity in A2780 cells [7]: 30%; expression of MAPKAPK3 [8]: failed to down-regulate; IC50 [9]: 0.02 µM; inhibition of thioredoxin reductase activity ([10]; Caki-1 cells, 5 μM, five hour incubation): 74.1%; IC50 ([10]; read-out: IC50 thioredoxin reductase in Caki-1 cells, after twelve hours): 0.61 µM; inhibition of total TrRx activity in MCF-7 cells [11]: 18%
3 | COc1ccc(C[C]2([Ti+2][C]3(Cc4ccc(OC)cc4)C=CC=C3)C=CC=C2)cc1.[Cl-].[Cl-] [Titanocene Y, reference compound] |  | > 200 µM |  | 29.4 ± 4.18 µM | 
4 | [Cl-].[Cl-].[Ti+4].c1cc[cH-]c1.c1cc[cH-]c1 [[(π-C5H5)2TiCl2], reference compound] |  | > 200 µM |  | > 200 µM | 
5 | [Au(Hmba)(MPPF)] [Precursor 5] | 3.78 ± 0.13 µM | 3 ± 0.07 µM | did not affect the mobility | 3.6 ± 0.342 µM | 
6 | N.N.[Cl][Pt][Cl] [Cisplatin, reference compound] |  | 3.27 ± 0.13 µM | decreased mobility of the CCC form and increased mobility of the OC form | 29 ± 4.11 µM | 
